In article PMC12226733, “Evolution of iGluR ligand specificity, polyamine regulation, and ion selectivity inferred from a placozoan epsilon receptor” (Communications Biology, 2025):
Where two headings read alike, the source gives them in different places.

Molecular target: T1, GluE1αA S642N (Trichoplax adhaerens, UniProt B3SAW0, S167N)
T1 sequence (B3SAW0 1-341 S167N): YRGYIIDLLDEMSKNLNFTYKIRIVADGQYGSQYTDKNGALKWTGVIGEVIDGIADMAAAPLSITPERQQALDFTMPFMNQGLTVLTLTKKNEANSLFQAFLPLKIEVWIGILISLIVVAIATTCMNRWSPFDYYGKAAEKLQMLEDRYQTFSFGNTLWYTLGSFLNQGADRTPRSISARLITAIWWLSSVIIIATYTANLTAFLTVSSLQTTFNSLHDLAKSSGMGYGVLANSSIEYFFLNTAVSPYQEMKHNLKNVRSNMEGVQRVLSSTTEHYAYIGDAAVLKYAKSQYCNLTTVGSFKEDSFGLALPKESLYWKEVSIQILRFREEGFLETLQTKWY
Type: cell-based
Conditions: for normalized conductance (G-V, Figure 5g), Avg: Na vs Na; for I-V current, Na vs Na, Avg of recordings: Figure 5b

[Na+] [Na]
pNa/pNa: 1.08
normalized conductance (G-V, Figure 5g), Avg (Vm 0.00): 0.09
normalized conductance (G-V, Figure 5g), Avg (Vm 20.00): 0.06
normalized conductance (G-V, Figure 5g), Avg (Vm 40.00): 0.14
normalized conductance (G-V, Figure 5g), Avg (Vm 60.00): 0.27
normalized conductance (G-V, Figure 5g), Avg (Vm 80.00): 0.34
normalized conductance (G-V, Figure 5g), Avg (Vm -20.00): 0.24
normalized conductance (G-V, Figure 5g), Avg (Vm -40.00): 0.49
normalized conductance (G-V, Figure 5g), Avg (Vm -60.00): 0.76
normalized conductance (G-V, Figure 5g), Avg (Vm -80.00): 1.00
I-V current, Na vs Na, Avg of recordings (Vm 0.00): -0.00109
I-V current, Na vs Na, Avg of recordings (Vm 20.00): 0.0153
I-V current, Na vs Na, Avg of recordings (Vm 40.00): 0.04
I-V current, Na vs Na, Avg of recordings (Vm 60.00): 0.11
I-V current, Na vs Na, Avg of recordings (Vm 80.00): 0.22
I-V current, Na vs Na, Avg of recordings (Vm -20.00): -0.0458
I-V current, Na vs Na, Avg of recordings (Vm -40.00): -0.16
I-V current, Na vs Na, Avg of recordings (Vm -60.00): -0.37
I-V current, Na vs Na, Avg of recordings (Vm -80.00): -0.64
